Each structure is given as a SMILES string. Like-named read-outs stand apart in the source and are kept apart here.

This assay concerns the target human μ-opiate receptor (Homo sapiens, UniProt P35372). Briefly: Affinity for the human μ-opiate receptor ([3H]-naloxone displacement, SPA, CHO-K1 membrane preparation). In kind it is binding. The settings on record: for inhibition at 1 µM: read-out: μ-Opioid receptor, % inhibition [1 μM]; for Ki: read-out: μ-Opioid receptor, Ki.

human μ-opiate receptor, sequence (P35372 whole entry): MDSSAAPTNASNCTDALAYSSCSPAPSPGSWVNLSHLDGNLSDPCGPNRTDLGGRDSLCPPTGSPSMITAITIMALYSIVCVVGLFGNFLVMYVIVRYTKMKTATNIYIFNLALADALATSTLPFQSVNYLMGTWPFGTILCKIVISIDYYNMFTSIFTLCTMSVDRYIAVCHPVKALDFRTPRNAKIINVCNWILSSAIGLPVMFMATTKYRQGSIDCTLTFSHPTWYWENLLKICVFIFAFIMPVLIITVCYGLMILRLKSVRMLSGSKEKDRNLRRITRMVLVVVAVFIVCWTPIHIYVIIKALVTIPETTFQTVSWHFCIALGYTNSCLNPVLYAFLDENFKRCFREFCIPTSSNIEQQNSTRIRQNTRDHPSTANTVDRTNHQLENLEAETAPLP

Regarding `CN(C)C(c1ccccc1)C1CCC(CNC(=O)c2cccs2)CC1` (stereo not drawn) [compound 328, thiophene-2-carboxylic acid [4-(dimethylamino-phenyl-methyl)-cyclohexyl-methyl]-amide], the inhibition at 1 µM is 94% and the Ki amounted to 16 nM.

With `CN(C)C(c1ccccc1)C1CCC(CNC(=O)c2cc(Cl)cc(Cl)c2)CC1` (stereo not drawn) [compound 329, 3,5-dichloro-N-[4-(dimethylamino-phenyl-methyl)-cyclohexylmethyl]-benzamide], the inhibition at 1 µM worked out at 94% and the Ki was determined as 35 nM.

As to `Cc1oc(-c2ccccc2)cc1C(=O)NCC1CCC(C(c2ccc(Cl)cc2)N(C)C)CC1` (stereo not drawn) [compound 330, 2-methyl-5-phenyl-furan-3-carboxylic acid {4-[(4-chloro-phenyl)-dimethylamino-methyl]-cyclohexylmethyl}-amide], the inhibition at 1 µM was 94% and the inhibitory constant (Ki) worked out at 39 nM.

For the compound `CN(C)C(c1ccccc1)C1CCC(CNC(=O)c2cccc(Cl)c2)CC1` (stereo not drawn) [compound 331, 3-chloro-N-[4-(dimethylamino-phenyl-methyl)-cyclohexylmethyl]-benzamide], the inhibition at 1 µM came out at 93% and the Ki was 11 nM.

As to `CN(C)C(c1ccccc1)C1CCC(CNC(=O)c2csc(-c3ccccc3)n2)CC1` (stereo not drawn) [compound 335, 2-phenyl-thiazole-4-carboxylic acid [4-(dimethylamino-phenyl-methyl)-cyclohexylmethyl]-amide], the inhibition at 1 µM stood at 92% and the Ki worked out at 33 nM.

`Cc1ccc(Oc2ncccc2C(=O)NCC2CCC(C(c3cccc(F)c3)N(C)C)CC2)cc1` (stereo not drawn) [compound 337, N-{4-[dimethylamino-(3-fluoro-phenyl)-methyl]-cyclohexylmethyl}-2-p-tolyloxy-nicotinamide]: the inhibition at 1 µM was determined as 92%.

With `CN(C)C(c1ccccc1)C1CCC(CNC(=O)c2c(Cl)cc(Cl)cc2Cl)CC1` (stereo not drawn) [compound 338, 2,4,6-trichloro-N-[4-(dimethylamino-phenyl-methyl)-cyclohexylmethyl]-benzamide], the inhibition at 1 µM came to 91% and the Ki turned out to be 28 nM.

As for `CN(C)C(c1ccccc1)C1CCC(CNC(=O)C2(c3ccc(Cl)cc3)CCCC2)CC1` (stereo not drawn) [compound 339, 1-(4-chloro-phenyl)-cyclopentane-carboxylic acid [4-(dimethylamino-phenyl-methyl)-cyclohexylmethyl]-amide], the Ki came out at 25 nM. Besides, under “1 µM”, the “μ-Opioid receptor, % inhibition [1 μM]” value is recorded as 91%.

Take `CN(C)C(c1cccc(F)c1)C1CCC(CNC(=O)Cc2cccs2)CC1` (stereo not drawn) [compound 343, N-{4-[dimethylamino-(3-fluoro-phenyl)-methyl]-cyclohexylmethyl}-2-thiophen-2-yl-acetamide]: the inhibition at 1 µM was 90%.

Take `CN(C)C(c1ccc(F)cc1)C1CCC(CNC(=O)c2csc3ccccc23)CC1` (stereo not drawn) [compound 344, benzo[b]thiophene-3-carboxylic acid {4-[dimethylamino-(4-fluoro-phenyl)-methyl]-cyclohexylmethyl}-amide]: the inhibition at 1 µM came out at 90% and the inhibition constant (Ki) was 13 nM.

In the case of `Cc1oc(-c2ccccc2)cc1C(=O)NCC1CCC(C(c2ccccc2)N(C)C)CC1` (stereo not drawn) [compound 345, 2-methyl-5-phenyl-furan-3-carboxylic acid [4-(dimethylamino-phenyl-methyl)-cyclohexylmethyl]-amide], the inhibition at 1 µM came to 90% and the Ki is 13 nM.

`CC(Oc1ccccc1)C(=O)NCC1CCC(C(c2cccc(F)c2)N(C)C)CC1` (stereo not drawn) [compound 346, N-{4-[dimethylamino-(3-fluoro-phenyl)-methyl]-cyclohexylmethyl}-2-phenoxy-propionamide]: the inhibition at 1 µM stood at 90% and the Ki was found to be 65 nM.

For `CN(C)C(c1cccs1)C1CCC(CNC(=O)c2cccc(C#N)c2)CC1` (stereo not drawn) [compound 347, 3-cyano-N-[4-(dimethylamino-thiophen-2-yl-methyl)-cyclohexylmethyl]-benzamide], the inhibition at 1 µM was found to be 90% and the Ki stood at 26 nM.

As to `COc1cccc(CC(=O)NCC2CCC(C(c3ccccc3)N(C)C)CC2)c1` (stereo not drawn) [compound 349, N-[4-(dimethylamino-phenyl-methyl)-cyclohexylmethyl]-2-(3-methoxy-phenyl)-acetamide], the inhibition at 1 µM is 89% and the Ki stood at 50 nM.

Regarding `CN(C)C(c1cccc(F)c1)C1CCC(CNC(=O)c2ccc(F)c(C(F)(F)F)c2)CC1` (stereo not drawn) [compound 350, N-{4-[dimethylamino-(3-fluoro-phenyl)-methyl]-cyclohexylmethyl}-4-fluoro-3-trifluoromethyl-benzamide], the inhibition at 1 µM stood at 89% and the inhibition constant Ki is 37 nM.

In the case of `CCSc1ncccc1C(=O)NCC1CCC(C(c2ccc(Cl)cc2)N(C)C)CC1` (stereo not drawn) [compound 351, N-{4-[(4-chloro-phenyl)-dimethylamino-methyl]-cyclohexylmethyl}-2-ethyl-sulfanyl-nicotinamide], the “μ-Opioid receptor, % inhibition [1 μM]” value came out at 89% and the inhibitory constant (Ki) worked out at 58 nM.

`Cc1ccc(Oc2ncccc2C(=O)NCC2CCC(C(c3cccs3)N(C)C)CC2)cc1` (stereo not drawn) [compound 352, N-[4-(dimethylamino-thiophen-2-yl-methyl)-cyclohexylmethyl]-2-p-tolyloxy-nicotinamide]: the inhibition at 1 µM turned out to be 87%.

On to `Cc1oc(-c2ccccc2)cc1C(=O)NCC1CCC(C(c2cccc(F)c2)N(C)C)CC1` (stereo not drawn) [compound 353, 2-methyl-5-phenyl-furan-3-carboxylic acid {4-[dimethylamino-(3-fluoro-phenyl)-methyl]-cyclohexylmethyl}-amide], for which the inhibition at 1 µM came to 87% and the Ki came out at 96 nM.

Turning to `CN(C)C(c1ccc(Cl)cc1)C1CCC(CNC(=O)c2ccccc2Cl)CC1` (stereo not drawn) [compound 354, 2-chloro-N-{4-[(4-chloro-phenyl)-dimethylamino-methyl]-cyclohexylmethyl}-benzamide], the inhibition at 1 µM turned out to be 86% and the Ki is 53 nM.

As to `CN(C)C(c1ccccc1)C1CCC(CNC(=O)c2cccnc2Cl)CC1` (stereo not drawn) [compound 355, 2-chloro-N-[4-(dimethylamino-phenyl-methyl)-cyclohexylmethyl]-nicotinamide], the inhibition at 1 µM was 86% and the Ki is 120 nM.

On to `CCCc1ccc(C(=O)NCC2CCC(C(c3cccs3)N(C)C)CC2)cc1` (stereo not drawn) [compound 356, N-[4-(dimethylamino-thiophen-2-yl-methyl)-cyclohexylmethyl]-4-propyl-benzamide], for which the inhibition at 1 µM was found to be 86% and the inhibition constant (Ki) is 120 nM.

Take `CN(C)C(c1ccccc1)C1CCC(CNC(=O)c2cccc(Br)c2)CC1` (stereo not drawn) [compound 358, 3-bromo-N-[4-(dimethylamino-phenyl-methyl)-cyclohexylmethyl]-benzamide]: the inhibition at 1 µM worked out at 86% and the Ki was found to be 11 nM.

For the compound `CN(C)C(c1ccc(F)cc1)C1CCC(CNC(=O)Cc2cccs2)CC1` (stereo not drawn) [compound 359, N-{4-[dimethylamino-(4-fluoro-phenyl)-methyl]-cyclohexylmethyl}-2-thiophen-2-yl-acetamide], the inhibition at 1 µM came to 86%.

As for `CN(C)C(c1ccccc1)C1CCC(CNC(=O)c2ccc(Cl)cc2Cl)CC1` (stereo not drawn) [compound 361, 2,4-dichloro-N-[4-(dimethylamino-phenyl-methyl)-cyclohexylmethyl]-benzamide], the inhibition at 1 µM came to 85% and the Ki was 42 nM.

Regarding `Cc1cccc(C(=O)NCC2CCC(C(c3ccccc3)N(C)C)CC2)c1` (stereo not drawn) [compound 362, N-[4-(dimethylamino-phenyl-methyl)-cyclohexylmethyl]-3-methyl-benzamide], the inhibition at 1 µM is 85% and the Ki stood at 60 nM.

Take `CN(C)C(c1cccc(F)c1)C1CCC(CNC(=O)c2ccccc2Br)CC1` (stereo not drawn) [compound 363, 2-bromo-N-{4-[dimethylamino-(3-fluoro-phenyl)-methyl]-cyclohexylmethyl}-benzamide]: the inhibition at 1 µM worked out at 85% and the Ki came out at 38 nM.

Regarding `CN(C)C(c1cccc(F)c1)C1CCC(CNC(=O)c2csc(-c3ccccc3)n2)CC1` (stereo not drawn) [compound 365, 2-phenyl-thiazole-4-carboxylic acid {4-[dimethylamino-(3-fluoro-phenyl)-methyl]-cyclohexylmethyl}-amide], the inhibition at 1 µM is 85% and the inhibition constant (Ki) came to 74 nM.

In the case of `Cc1cc(C(=O)NCC2CCC(C(c3cccs3)N(C)C)CC2)n(C(C)(C)C)n1` (stereo not drawn) [compound 366, 2-tert-butyl-5-methyl-2H-pyrazole-3-carboxylic acid [4-(dimethylamino-thiophen-2-yl-methyl)-cyclohexylmethyl]-amide], the inhibition at 1 µM turned out to be 85% and the inhibitory constant (Ki) is 56 nM.

Turning to `CC(C)S(=O)(=O)c1csc(C(=O)NCC2CCC(C(c3cccs3)N(C)C)CC2)c1Cl` (stereo not drawn) [compound 367, 3-chloro-4-(propane-2-sulfonyl)-thiophene-2-carboxylic acid [4-(dimethylamino-thiophen-2-yl-methyl)-cyclohexylmethyl]-amide], the inhibition at 1 µM was found to be 85% and the Ki was found to be 110 nM.

For the compound `COc1ccccc1C(=O)NCC1CCC(C(c2cccc(F)c2)N(C)C)CC1` (stereo not drawn) [compound 368, N-{4-[dimethylamino-(3-fluoro-phenyl)-methyl]-cyclohexylmethyl}-2-methoxy-benzamide], the inhibition at 1 µM worked out at 84% and the Ki was found to be 34 nM.

Regarding `CN(C)C(c1ccc(Cl)cc1)C1CCC(CNC(=O)c2cccc(C(F)(F)F)c2)CC1` (stereo not drawn) [compound 369, N-{4-[(4-chloro-phenyl)-dimethylamino-methyl]-cyclohexylmethyl}-3-trifluoromethyl-benzamide], the inhibition at 1 µM amounted to 84% and the inhibition constant (Ki) is 68 nM.

As to `CN(C)C(c1ccc(F)cc1)C1CCC(CNC(=O)C2(c3ccc(Cl)cc3)CCCC2)CC1` (stereo not drawn) [compound 370, 1-(4-chloro-phenyl)-cyclopentane-carboxylic acid {4-[dimethylamino-(4-fluoro-phenyl)-methyl]-cyclohexylmethyl}-amide], the inhibition at 1 µM was determined as 84% and the Ki turned out to be 81 nM.

Values taken from patent publication US8058475B2, “Substituted cyclohexylmethyl compounds” (Gruenenthal GmbH, priority 2005, dated 2011).
